{"source": "patent US20100135984A1", "about": "“Anti-inflammatory compositions and methods” (Searete LLC, a limited liability corporation of the State …, priority 2008, published 2010)", "origin": "cited, not measured here", "key": {"[1]": {"conditions": "mice"}, "[2]": {"conditions": "single agent, infused at 400 mg over one hour"}, "Fyn": {"biological_target": "Fyn (Homo sapiens, UniProt P06241)", "sequence (P06241 whole entry, species assumed)": "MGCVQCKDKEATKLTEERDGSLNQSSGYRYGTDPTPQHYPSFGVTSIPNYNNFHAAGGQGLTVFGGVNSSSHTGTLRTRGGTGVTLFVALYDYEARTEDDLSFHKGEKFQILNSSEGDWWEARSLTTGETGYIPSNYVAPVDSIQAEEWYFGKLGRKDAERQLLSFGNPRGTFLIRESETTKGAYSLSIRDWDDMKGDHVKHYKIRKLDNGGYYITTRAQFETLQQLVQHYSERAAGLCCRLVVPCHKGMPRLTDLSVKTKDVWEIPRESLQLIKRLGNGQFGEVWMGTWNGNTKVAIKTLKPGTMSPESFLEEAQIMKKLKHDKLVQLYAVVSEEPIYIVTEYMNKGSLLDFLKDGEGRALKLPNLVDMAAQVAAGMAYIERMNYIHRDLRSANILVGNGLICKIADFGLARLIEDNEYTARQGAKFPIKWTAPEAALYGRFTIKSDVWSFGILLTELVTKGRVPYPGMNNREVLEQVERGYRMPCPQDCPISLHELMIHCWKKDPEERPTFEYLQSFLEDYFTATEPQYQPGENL", "conditions": "at nanomolar concentrations"}, "proteasome": {"test_system": "proteasome", "conditions": "cultured breast cancer cells; copper-bound"}}}
{"smiles": "CCN(CC)CCCC(C)Nc1ccnc2cc(Cl)ccc12", "note": "(stereo not drawn) [Chloroquine]", "values": [{"measurement": "inhibition of CpG-induced Src family kinase activation or its dependent cellular responses", "setting": "Src family kinase", "value": "does not inhibit"}]}
{"smiles": "Cl.Cl.Nc1ccccc1Oc1ccc2c(N)nsc2c1", "note": "[Example M62812, 3-amino-6-(2-aminophenoxy)-1,2-benzisothiazole dihydrochloride]", "values": [{"measurement": "prevention of lethal septic shock", "setting": "[1]", "value": "prevents lethal septic shock"}]}
{"smiles": "CCN(CC)CCCC(C)Nc1ccnc2cc(Cl)ccc12.O=P(O)(O)O.O=P(O)(O)O", "note": "(stereo not drawn) [chloroquine phosphate, 7-chloro-4-[[4-(diethylamino)-1-methylbutyl]amino]quinoline phosphate (1:2)]", "values": [{"measurement": "tolerability of infusion", "setting": "[2]", "value": "without complication"}]}
{"smiles": "Cc1nc(Nc2ncc(C(=O)Nc3c(C)cccc3Cl)s2)cc(N2CCN(CCO)CC2)n1.O", "note": "[dasatinib, N-(2-chloro-6-methylphenyl)-2-[[6-[4-(2-hydroxyethyl)-1-piperazinyl]-2-methyl-4-pyrimidinyl]amino]-5-thiazolecarboxamide, monohydrate]", "values": [{"measurement": "inhibition of Fyn", "setting": "Fyn", "value": "inhibits"}]}
{"smiles": "CCN(CC)C(=S)SSC(=S)N(CC)CC", "note": "[disulfiram, 1-(diethylthiocarbamoyldisulfanyl)-N,N-diethyl-methanethioamide]", "values": [{"measurement": "inhibition of aldehyde dehydrogenase", "setting": "aldehyde dehydrogenase", "value": "inhibits aldehyde dehydrogenase without toxicity"}, {"measurement": "proteasomal activity", "setting": "proteasome", "value": "inhibits proteasomal activity"}]}
